Laboratory results from patent publication US20070297980A1, “Geldanamycin and Derivatives Inhibit Cancer Invasion and Identify Novel Targets” (priority 2004, published 2007).
“Also recorded” adds a separate entry of the source.

Assays:
[1] = test system: HGF/SF-induced uPA-plasmin activity in MDCK cells; experiment: HGF/SF-Met-uPA-plasmin cell-based assay, MDCK cells; design: species or system canine; conditions: for concentration level at which HGF/SF-induced uPA activity is inhibited: words
[2] = test system: HGF/SF-induced cell scattering in MDCKG3 cells; experiment: Scatter assay, MDCKG3 cells (maintained in MA); assay type: cell-based, canine; conditions: MDCKG3 cells maintained in 3×10^−6 M MA; GA tested 10^−7 to 10^−15 M
Method: (§1) Scatter Assay. In parallel with assessing uPA activity, 96-well plates of MDCK cells were used to detect cell scattering. Cell preparation was same as above (plasmin assay) described above. At the same time as uPA activity was measured, the cells being assayed for scatter were fixed, stained (Diff-Quik Set, Dade Behring AG) and photographed.

[3] = test system: HGF/SF-induced Matrigel invasion by DBTRG cells; experiment: In vitro Matrigel invasion assay, DBTRG; assay type: cell-based, human; conditions: even at pM-fM concentrations
Method: (§2) In Vitro Cell Invasion Assay. The in vitro invasion assay was performed as previously described by Jeffers et al., 1996, using a 24-well invasion chamber coated with GFR-Matrigel® (Becton Dickinson). Cells were suspended in DMEM/0.1% BSA and were plated in the invasion (upper) chamber (5−25×10^3 cells/well) (DBTRG 5,000, SNB19 and U373 25,000 cells/well). The lower chamber was filled with DMEM/0.1% BSA with or without the addition of HGF/SF (100 ng/ml). To evaluate GA inhibition, GA was serially diluted into both the upper and lower chambers at final concentrations 1 μM, to 1 fM as indicated and immediately after HGF/SF addition. After 24 h, cells remaining in the upper chamber were removed by scraping. The cells that invaded through the Matrigel® and attached to the lower surface of the insert were stained using Diff-Quik (Dade Behring Inc.) and counted under a light microscope.

[4] = test system: HGF/SF-induced Matrigel invasion by SNB19 cells; experiment: In vitro Matrigel invasion assay, SNB19; assay type: cell-based, human; conditions: even at pM-fM concentrations
Method: as §2

[5] = test system: HGF/SF-induced Matrigel invasion by U373 cells; experiment: In vitro Matrigel invasion assay, U373; assay type: cell-based, human; conditions: even at pM-fM concentrations
Method: as §2

Met expression = experiment: Western blot, Met expression; assay type: cell-based; design: effect on Met expression: dose or concentration left out as unconfirmed; conditions: for Met abundance upon acute challenge: 24 hrs, MDCKG1-G3 cells chronically exposed to MA; for effect on Met expression: MDCK and DBTRG cells
Method: (§3) Western Blot and Expression of Met and other Proteins. Cells were seeded in 60×15 mm dishes at 10^5 cells per dish. HGF/SF (100 ng/ml) was added to each dish 24 hr later. Immediately thereafter, serially diluted GA or MA was added to the relevant dishes at the concentrations indicated, and incubated for the indicated length of time before lysis. For Met and MAPK phosphorylation detection, 10^5 cells were seeded in 60×15 mm dishes and serum-starved for 24 hrs. After HGF/SF (100 ng/ml) stimulation, cells were lysed at 10 and 30 min. Control cells were not given HGF/SF. After cell lysis, protein concentration was determined by DC protein assay (Bio-Rad), and equal quantities of protein were loaded and separated by SDS-PAGE and transferred in a Western blot to PVDF membranes (Invitrogen). After blocking with 5% dry milk, membranes were blotted with specific antibodies.
After cells grew to 80% confluence, GA or MA, at various concentrations was added to the dishes. After 24 hours, cells were washed twice with PBS and lysed in TNESV buffer supplemented with Complete™ proteinase inhibitors (Roche Molecular Biochemicals). Protein concentration was determined by DC protein assay. Equal quantities of protein were used for Western blotting for Met and HSP90α. For pull-down assays, 20 μl of control or GA beads adjusted for equal concentrations were added to […] of extract and rotated at 4° C. overnight. Beads were recovered by low speed centrifugation and washed 3× with TNESV. Sixty μl 2× sample buffer was added to beads and boiled for 10 min. The samples were subjected to SDS-PAGE followed by Western blot analysis.

[6] = Egorin M J et al., 2002; cited from earlier work
[7] = test system: HGF/SF-induced uPA activity in U373 cells; experiment: HGF/SF-Met-uPA-plasmin cell-based assay, U373 cells; design: species or system human
Method: (§4) HGF/SF-Met-uPA-Plasmin Cell-Based Assay (Webb et al., supra). Cells were seeded in 96-well plates at 1500 cells/well (with the exception of SK-LMS-1 cells, which were seeded at 5000 cells/well) in order to detect color intensity, either with MTS (Promega) for cell growth determination or via Chromozyme PL (Boehringer Mannheim) for uPA-plasmin activity measurement. Cells were grown overnight in DMEM/10% FBS as described previously. Drugs were dissolved in DMSO and serially diluted from stock concentrations into DMEM/10% FBS medium and added to the appropriate wells. Immediately after drug or reagent addition, HGF/SF (60 ng/ml) was added to all wells (with the exception of wells used as controls to calculate basal growth and uPA-plasmin activity levels). Twenty-four hours after drug and HGF/SF addition, plates were processed for the determination of uPA-plasmin activity as follows: Wells were washed twice with DMEM (without phenol red; Life Technologies, Inc.), and 200 μl of reaction buffer [50% (v/v) 0.05 units/ml plasminogen in DMEM (without phenol red), 40% (v/v) 50 mM Tris buffer (pH 8.2), and 10% (v/v) 3 mM Chromozyme PL (Boehringer Mannheim) in 100 mM glycine solution] were added to each well. […]

[8] = test system: uPA activity in DBTRG cells; experiment: HGF/SF induction of uPA activity, DBTRG cells; assay type: cell-based, human; conditions: peak uPA induction after HGF/SF to basal
Method: as §4

[9] = test system: uPA activity in SNB19 cells; experiment: HGF/SF induction of uPA activity, SNB19 cells; assay type: cell-based, human; conditions: peak uPA induction after HGF/SF to basal
Method: as §4

[10] = test system: uPA activity in U118 cells; experiment: HGF/SF induction of uPA activity, U118 cells; assay type: cell-based, human; conditions: peak uPA induction after HGF/SF to basal
Method: as §4

[11] = test system: uPA activity in U87 cells; experiment: HGF/SF induction of uPA activity, U87 cells; assay type: cell-based, human; conditions: peak uPA induction after HGF/SF to basal
Method: (§5) Cells were seeded in 96-well plates at 1500 cells/well (with the exception of SK-LMS-1 cells, which were seeded at 5000 cells/well) in order to detect color intensity, either with MTS (Promega) for cell growth determination or via Chromozyme PL (Boehringer Mannheim) for uPA-plasmin activity measurement. Cells were grown overnight in DMEM/10% FBS as described previously. Drugs were dissolved in DMSO and serially diluted from stock concentrations into DMEM/10% FBS medium and added to the appropriate wells. Immediately after drug or reagent addition, HGF/SF (60 ng/ml) was added to all wells (with the exception of wells used as controls to calculate basal growth and uPA-plasmin activity levels). Twenty-four hours after drug and HGF/SF addition, plates were processed for the determination of uPA-plasmin activity as follows: Wells were washed twice with DMEM (without phenol red; Life Technologies, Inc.), and 200 μl of reaction buffer [50% (v/v) 0.05 units/ml plasminogen in DMEM (without phenol red), 40% (v/v) 50 mM Tris buffer (pH 8.2), and 10% (v/v) 3 mM Chromozyme PL (Boehringer Mannheim) in 100 mM glycine solution] were added to each well. […]

[12] = test system: uPA activity in SW1874 cells; experiment: HGF/SF induction of uPA activity, SW1874 cells; assay type: cell-based, human; conditions: peak uPA induction after HGF/SF to basal
Method: as §5

[13] = test system: uPA activity in SK-LMS-1 cells; experiment: HGF/SF induction of uPA activity, SK-LMS-1 cells; assay type: cell-based, human; conditions: peak uPA induction after HGF/SF to basal
Method: as §5

[14] = test system: uPA activity in DU145 cells; experiment: HGF/SF induction of uPA activity, DU145 cells; assay type: cell-based, human; conditions: peak uPA induction after HGF/SF to basal
Method: as §5

[15] = test system: uPA activity in PC-3 cells; experiment: HGF/SF induction of uPA activity, PC-3 cells; assay type: cell-based, human; conditions: peak uPA induction after HGF/SF to basal
Method: as §4

[16] = test system: HGF/SF-induced MDCK cell scattering; experiment: Scatter assay, MDCK cells; assay type: cell-based, canine
Method: as §1

[17] = preliminary reports; Neckers et al; Sausville et al; cited from earlier work
[18] = test system: cell proliferation (DBTRG, U373, SNB19 cells); experiment: Proliferation assay (MTS); assay type: cell-based, human; conditions: cell line not stated
Method: Proliferation Assay. In parallel with uPA-plasmin detection assay, cell proliferation in 96-well plates was detected with MTS. […] The plates were then incubated at 37° C., in a 5% CO2 atmosphere for 4 h. The absorbance was read on an automated spectrophotometric plate reader at 490 nm.

MDCK cells = experiment: Long-term culture of MDCK cells in macbecin II; assay type: cell-based, canine
Method: All compounds were first diluted in DMSO at 0.01M, separated into small stock aliquots (5 μl) and kept at −80° C. until use. When used, stocks were thawed and serially diluted with DMEM/10% FBS. For long term culture with MA, conditioned medium with the compound at 1, 2, or 3×10^−6 M was changed at least twice a week.

HSP90α expression = experiment: Western blot, HSP90α expression; assay type: cell-based; conditions: MDCK and DBTRG cells
Method: as §3
After cells grew to 80% confluence, GA or MA, at various concentrations was added to the dishes. After 24 hours, cells were washed twice with PBS and lysed in TNESV buffer supplemented with Complete™ proteinase inhibitors (Roche Molecular Biochemicals). Protein concentration was determined by DC protein assay. Equal quantities of protein were used for Western blotting for Met and HSP90α. […]

HSP90α = experiment: GA-affinity bead pull-down (solid-phase binding assay); conditions: MDCK and DBTRG lysates

C[C@@H]1C[C@H]2O[C@@H]2/C=C\C=C\C(=O)Cc2c(Cl)c(O)cc(O)c2C(=O)O1 [Compound 3, Radicicol, reference compound]
activity in HGF/SF-induced uPA-plasmin cell-based assays (words) ([1]; MDCK cells): poor activity; also recorded: inactive
concentration level at which HGF/SF-induced uPA activity is inhibited [1]: only at nanomolar levels
concentration level at which HGF/SF-induced uPA activity is inhibited ([1]; listed as RA): only at nM or higher concentrations

CO[C@H]1/C=C\C=C(/C)C(=O)NC2=CC(=O)C(N3CCC3)=C(C[C@@H](C)C[C@H](OC)[C@H](O)[C@@H](C)/C=C(\C)[C@@H]1O)C2=O [Compound 19, 17-(1-Azetidinyl)-7-decarbamyl-17-demethoxygeldanamycin]
activity in HGF/SF-induced uPA-plasmin cell-based assays (words) ([1]; MDCK cells): completely inactive

COC1=C2C[C@@H](C)C[C@H](OC)[C@H](O)[C@@H](C)/C=C(\C)[C@H](OC(N)=O)[C@@H](OC)/C=C\C=C(/C)C(=O)NC(=CC1=O)C2=O [Compound 1, (+)-Geldanamycin]
activity in HGF/SF-induced uPA-plasmin cell-based assays (words) ([1]; MDCK cells): active
GA concentration at which scattering was again fully observed [2]: 10^−15 M
effect on HGF/SF-induced Matrigel invasion [3]: abolished
effect on HGF/SF-induced Matrigel invasion [4]: abolished
effect on HGF/SF-induced Matrigel invasion [5]: abolished
Met abundance upon acute challenge (Met expression; 10^−6 M GA): dramatic decreases
effect on Met expression (Met expression; GA at nM levels): downregulates

CO[C@H]1/C=C\C=C(/C)C(=O)NC2=CC(=O)C(N3CCC3)=C(C[C@@H](C)C[C@H](OC)[C@H](OC(C)=O)[C@@H](C)/C=C(\C)[C@@H]1OC(N)=O)C2=O [Compound 18, 11-O-Acetyl-17-(1-azetidinyl)-17-demethoxygeldanamycin]
activity in HGF/SF-induced uPA-plasmin cell-based assays (words) ([1]; MDCK cells): inactive

CO[C@H]1[C@@H](OC)C[C@H](C)[C@@H](OC)C2=CC(=O)C=C(NC(=O)/C(C)=C/C=C\[C@H](C)[C@@H](OC(N)=O)/C(C)=C/[C@@H]1C)C2=O [Compound 2, Macbecin I, reference compound]
activity in HGF/SF-induced uPA-plasmin cell-based assays (words) ([1]; MDCK cells): inactive
activity in HGF/SF-induced uPA-plasmin cell-based assays (words) ([1]; MDCK cells, listed as macbecin I): poor activity

COC1/C=C\C=C(/C)C(=O)NC2=CC(=O)C(NCCN(C)C)=C(C[C@@H](C)C[C@H](OC)[C@H](O)[C@@H](C)/C=C(\C)[C@@H]1OC(N)=O)C2=O (some centres unmarked) [Compound 5, 17-(2-Dimethylaminoethyl)amino-17-demethoxygeldanamycin]
quantity not named in the sentence ("was essentially 100% when given i.p.") [6]: ~100%

COc1c(O)cc2c(O)c1C[C@@H](C)C[C@H](OC)[C@H](O)[C@@H](C)/C=C(\C)[C@H](OC(N)=O)[C@@H](OC)/C=C\C=C(/C)C(=O)N2 [Compound 20, 17,21-Dihydrogeldanamycin]
activity in HGF/SF-induced uPA-plasmin cell-based assays (words) ([1]; MDCK cells): active

CO[C@H]1/C=C\C=C(/C)C(=O)NC2=CC(=O)C(N3CCC3)=C(C[C@@H](C)C[C@H](OC)[C@H](O)[C@@H](C)/C=C(\C)[C@@H]1OC(N)=O)C2=O [Compound 14, 17-(1-Azetidinyl)-17-demethoxygeldanamycin]
activity in HGF/SF-induced uPA-plasmin cell-based assays (words) ([1]; MDCK cells): active

HGF/SF: hepatocyte growth factor/scatter factor, ligand of the Met receptor tyrosine kinase
uPA activity induction (fold) ([1]; MDCK, peak uPA induction after HGF/SF (0-60 ng/ml, 24 h) to basal): 4.27 fold
uPA activity induction (fold) ([7]; U373, peak uPA induction after HGF/SF to basal): 1.56 fold
uPA activity induction (fold) [8]: 2.28 fold
uPA activity induction (fold) [9]: 1.95 fold
uPA activity induction (fold) [10]: 1.12 fold
uPA activity induction (fold) [11]: 1.04 fold
uPA activity induction (fold) [12]: 0.97 fold
uPA activity induction (fold) [13]: 2.01 fold
uPA activity induction (fold) [14]: 1.06 fold
uPA activity induction (fold) [15]: 1.00 fold

C=CCNC1=C2C[C@@H](C)C[C@H](OC)[C@H](O)[C@@H](C)/C=C(\C)[C@H](OC(N)=O)[C@@H](OC)/C=C\C=C(/C)C(=O)NC(=CC1=O)C2=O [Compound 4, 17-Allylamino-17-demethoxygeldanamycin]
lowest concentration at which inhibitory effects on uPA activity observed ([1]; MDCK cells): 10^−17 M
activity in HGF/SF-induced uPA-plasmin cell-based assays (words) ([1]; MDCK cells): active
lowest concentration at which inhibitory effects on uPA activity observed ([7]; U373 cells): 10^−17 M
concentration range inhibiting HGF/SF-induced MDCK cell scattering ([16]; FIG. 10): pM to fM range
hepatic toxicity in clinical investigations [17]: dose-limiting

COC1CC(C)C(OC)c2cc(O)cc(c2O)NC(=O)/C(C)=C\C=C/C(C)C(OC(N)=O)/C(C)=C\C(C)C1OC (centres unmarked) [Compound 21, Macbecin II, reference compound]
activity in HGF/SF-induced uPA-plasmin cell-based assays (words) ([1]; MDCK cells): inactive
activity in HGF/SF-induced uPA-plasmin cell-based assays (words) ([1]; MDCK cells, listed as macbecin II): poor activity
concentration level at which HGF/SF-induced uPA activity is inhibited [1]: only at nM or higher concentrations
effect on HGF/SF-induced scattering of MDCK cells ([16]; 3×10^−6 M MA): effectively blocked
concentration level at which proliferation is inhibited [18]: nM levels
highest non-toxic concentration (MDCK cells; MDCK cells maintained for several months): 3 µM
MA concentration up to which MDCK cells continued to proliferate (MDCK cells; long-term culture): ≤ 3 µM
Met abundance upon acute challenge (Met expression; 10^−5 M MA): less of a decrease
effect on Met expression (Met expression; at MA): downregulation
effect on HSP90α expression (HSP90α expression): up-regulation
total HSP90α recovered with GA-affinity beads (HSP90α; cells treated with 10^−5 M MA): negligible levels
HSP90α available to the GA affinity beads (HSP90α; cells treated with 10^−6 M MA): reduced
